Source: publication PMC8835363, “Arachidin-1, a Prenylated Stilbenoid from Peanut, Induces Apoptosis in Triple-Negative Breast Cancer Cells” (International Journal of Molecular Sciences, 2022)
pIC50: −log10 of the molar value. Read-outs that look alike come from different tables or passages of the source.

Key:
[1] = tested on: UDP-glucuronosyltransferases; conditions: in vitro metabolism; cited from earlier work
[2] = tested on: human leukemia HL-60 cell line; set-up: method as in PMID 21067217; conditions: 72 h treatment; cited from earlier work
MDA-MB-231 cells = experiment: RealTime-Glo MT cell viability (cytotoxicity) assay; assay type: cell-based, human; conditions: MDA-MB-231; for pIC50: Homo sapiens
Method: (§1) The cytotoxicity of RES, A-1, and A-3 was measured using the RealTime-Glo^TM MT Cell Viability Assay (Promega, Madison, WI, USA). The cells (10,000 cells/well) were seeded into 96-well plates. […] Cells with 0.1% DMSO (ATCC; Manassas, VA, USA) were included as a control. Luminescence was measured every 12 h for 72 total hours in a Cytation^TM 5 (BioTek, Winooski, VT, USA) plate reader. All experiments were performed in triplicates.

MDA-MB-436 cells = experiment: as above; assay type: cell-based, human; conditions: MDA-MB-436
Method: as §1

MCF-7 cells = tested on: MCF-7 cells; set-up: method as in PMID 32721999, PMID 33643572; conditions: cited from earlier work
MDA-MB-231 = tested on: MDA-MB-231; set-up: method as in PMID 32721999, PMID 33643572; conditions: 24 h treatment, MTT assay; cited from earlier work
[3] = MDA-MB-231, 24 h, 24 h, in Figure 2 panels
[4] = MDA-MB-231, 24 h, 24 h of treatment
[5] = MDA-MB-231, 48 h, 48 h of treatment
[6] = MDA-MB-231, 72 h, 72 h of treatment
[7] = Homo sapiens, MDA-MB-436, 24 h, 24 h
[8] = Homo sapiens, MDA-MB-436, 24 h, 24 h, in Figure 2 panels
[9] = Homo sapiens, MDA-MB-436, 48 h, 48 h
[10] = Homo sapiens, MDA-MB-436, 72 h, 72 h

Compound | glucuronidated products compared to non-prenylated analogs piceatannol and RES [1] | pIC50 [2] | pIC50 (MDA-MB-231 cells; [3]) | pIC50 (MDA-MB-231 cells; [4]) | pIC50 (MDA-MB-231 cells; [5]) | pIC50 (MDA-MB-231 cells; [6]) | growth inhibition at low concentrations (MDA-MB-231 cells; 0.01-10 µM, 72 h) | pIC50 (MDA-MB-436 cells; [7]) | pIC50 (MDA-MB-436 cells; [8]) | pIC50 (MDA-MB-436 cells; [9]) | pIC50 (MDA-MB-436 cells; [10]) | growth inhibition at low concentrations (MDA-MB-436 cells; 0.01-10 µM, 72 h) | pIC50 (MDA-MB-436 cells; 72 h) | pIC50 (MCF-7 cells; 24 h treatment) | pIC50 (MCF-7 cells; 48 h treatment) | pIC50 (MDA-MB-231) | pIC50 (MDA-MB-231 cells; MDA-MB-231, 48 h, 48 h, in Figure 2 panels)
CC(C)/C=C/c1c(O)cc(/C=C/c2ccc(O)cc2)cc1O [A-3, arachidin-3] | lower glucuronidated products | 4.72 | 5.02 | 4.73 | 4.79 | 4.73 | no growth inhibition below 10 µM | 4.96 | 4.96 | 4.78 | 4.70 | no growth inhibition below 10 µM | 4.70 | – | – | – | –
Oc1ccc(/C=C/c2cc(O)cc(O)c2)cc1 [RES, resveratrol, reference compound] | – | 4.75 | 5.20 | 4.49 | 5.18 | 4.96 | – | 4.43 | 5.04 | 4.62 | 4.81 | – | – | 3.88 | 4.08 | 3.84 | 4.94
